Source: US9487504B2, “Imidazolyl analogs as syk inhibitors” (Merck Sharp & Dohme Corp., priority 2012, dated 2016)

target: T1, recombinant human GST-Syk (Homo sapiens, UniProt P43405); test: Homogeneous Time-Resolved Fluorescence (HTRF) assay for the recombinant human Syk enzyme; type: biochemical; details: ATP 25 μM, 10-dose titration, read-out: rhSYK Activity
T1 construct: purchased Carna Biosciences 08-176
Protocol: Syk inhibition may be determined using the following assay protocol:
Homogeneous Time-Resolved Fluorescence (HTRF) Assay for the Recombinant Human Syk Enzyme:
A recombinant GST-hSyk fusion protein was used to measure potency of compounds to inhibit human Syk activity. The recombinant human GST-Syk (Carna Biosciences #08-176) ([…]) was incubated with various concentrations of the inhibitor diluted in DMSO (0.1% final concentration) for 10 minutes at room temperature in 15 mM Tris-HCl (pH 7.5), 0.01% tween 20, 2 mM DTT in 384 well plate format. To initiate the reaction the biotinylated substrate peptide (250 nM final concentration) that contains the phosphorylation site for Syk was added with magnesium (5 mM final concentration) and ATP (25 μM final concentration). Final volume of the reaction was 10 μL. Phosphorylation of the peptide was allowed to proceed for 45 minutes at room temperature. To quench the reaction and detect the phosphorylated product, 2 nM of a Europium-anti-phosphotyrosine antibody (Perkin Elmer #AD0161) and 70 nM SA-APC (Perkin-Elmer #CR130-100) were added together in 15 mM Tris pH 7.5, 40 mM EDTA, 0.01% tween 20. Final volume of the quenching solution was 10 μL. The resulting HTRF signal was measured after 30 minutes on an EnVision (Perkin-Elmer) reader using a time-resolved fluorescence protocol. IC50 was determined following 10-dose titration (10 μM to 0.508 nM) and four parameter logistic curve fitting using the Merck Assay Data Analyzer. The rhSyk activity (IC50) is expressed as +++ (100 nM or less), ++ (between 100 and 1000 nM), + (between 1 and 10 μM).

| IC50 | SMILES |
| --- | --- |
| ≤ 100 nM | Cc1ccnc(Nc2cc(C)cc(-n3cnc([C@]4(O)CC[C@@H](OC(=O)c5ccccc5)CC4)c3)n2)c1 [Example 51, cis-4-hydroxy-4-(1-{4-methyl-6-[(4-methylpyridin-2-yl)amino]pyridin-2-yl}-1H-imidazol-4-yl)cyclohexyl benzoate] |
| 100 to 1000 nM | CC(C)(O)c1cn(-c2cccc(Nc3nccc(C(F)(F)F)n3)c2)cn1 [Example 104, 2-[1-(3-{[4-(trifluoromethyl)pyrimidin-2-yl]amino}-phenyl)-1H-imidazol-4-yl]propan-2-ol] |
| ≤ 100 nM | OC(c1cn(-c2cccc(Nc3cc(C(F)(F)F)ccn3)n2)cn1)(C1CC1)C1CC1 [Example 83, dicyclopropyl[1-(6-{[4-(trifluoromethyl)-pyridin-2-yl]amino}pyridin-2-yl)-1H-imidazol-4-yl]methanol] |
| 100 to 1000 nM | CCCCOC(=O)[C@H]1CC[C@H](C(C)(O)c2cn(-c3cc(C)cc(Nc4nccc(C)n4)c3)cn2)CC1 (relative stereo) [Example 11, Butyl trans-4-[1-hydroxy-1-(1-{3-methyl-5-[(4-methylpyrimidin-2-yl)amino]phenyl}-1H-imidazol-4-yl)ethyl]-cyclohexanecarboxylate] |
| ≤ 100 nM | Cc1cc(Nc2nccc(C3CC3)n2)cc(-n2cnc(CCC(=O)O)c2)c1 [Example 75, 3-(1-{3-[(4-cyclopropylpyrimidin-2-yl)amino]-5-methylphenyl}-1H-imidazol-4-yl)propanoic acid] |
| ≤ 100 nM | CCOC(=O)C1CCC(O)(c2cn(-c3cc(C)cc(Nc4nccc(C(F)(F)F)n4)c3)cn2)CC1 (stereo not drawn) [Example 36, Ethyl trans-4-hydroxy-4-[1-(3-methyl-5-{[4-(trifluoromethyl)pyrimidin-2-yl]amino}phenyl)-1H-imidazol-4-yl]-cyclohexanecarboxylate] |
| ≤ 100 nM | Cc1cc(Nc2nccc(C(F)(F)F)n2)cc(-n2cnc(C3(O)CCC(C(=O)O)C(C)(C)C3)c2)c1 (racemic) [Example 25, 4-hydroxy-2,2-dimethyl-4-[1-(3-methyl-5-{[4-(trifluoromethyl)pyrimidin-2-yl]amino}phenyl)-1H-imidazol-4-yl]-cyclohexanecarboxylic acid] |
| ≤ 100 nM | COC(=O)c1cn(-c2cc(C)cc(Nc3nccc(C(F)(F)F)n3)c2)cn1 [Example 98, Methyl 1-(3-methyl-5-{[4-(trifluoromethyl)-pyrimidin-2-yl]amino}phenyl)-1H-imidazole-4-carboxylate] |
| ≤ 100 nM | COC(=O)c1cn(-c2cc(C)cc(Nc3cc(C(F)(F)F)ccn3)n2)cn1 [Example 93, Methyl 1-(4-methyl-6-{[4-(trifluoromethyl)-pyridin-2-yl]amino}-pyridin-2-yl)-1H-imidazole-4-carboxylate] |
| ≤ 100 nM | Cc1cc(Nc2nccc(C3CC3)n2)cc(-n2cnc([C@]3(O)CC[C@@H](OC(=O)c4ccccc4)CC3)c2)c1 [Example 42, cis-4-(1-{3-[(4-cyclopropylpyrimidin-2-yl)amino]-5-methylphenyl}-1H-imidazol-4-yl)-4-hydroxycyclohexyl benzoate] |
| ≤ 100 nM | Cc1cc(Nc2nccc(C(F)(F)F)n2)cc(-n2cnc(C3=CCC(C(=O)O)CC3)c2)c1 (centres unmarked) [Example 3, 4-[1-(3-methyl-5-{[4-(trifluoromethyl)pyrimidin-2-yl]amino}phenyl)-1H-imidazol-4-yl]cyclohex-3-ene-1-carboxylic acid] |
| ≤ 100 nM | Cc1cc(Nc2cc(C3CC3)ccn2)nc(-n2cnc(CCC(=O)O)c2)c1 [Example 115, 3-(1-(6-((4-cyclopropylpyridin-2-yl)amino)-4-methylpyridin-2-yl)-1H-imidazol-4-yl)propanoic acid] |
| 100 to 1000 nM | Cc1cc(Nc2ncc(F)c(C)n2)cc(-n2cnc([C@]3(O)CC[C@@H](OC(=O)c4ccccc4)CC3)c2)c1 [Example 58, cis-4-(1-{3-[(5-fluoro-4-methylpyrimidin-2-yl)amino]-5-methylphenyl}-1H-imidazol-4-yl)-4-hydroxycyclohexyl benzoate] |
| ≤ 100 nM | Cc1ccnc(Nc2cc(C)cc(-n3cnc(C(C)(C)O)c3)n2)c1 [Example 87, 2-(1-{4-methyl-6-[(4-methylpyridin-2-yl)amino]pyridin-2-yl}-1H-imidazol-4-yl)propan-2-ol] |
| ≤ 100 nM | OC(c1cn(-c2cccc(Nc3nccc(C(F)(F)F)n3)c2)cn1)(C1CC1)C1CC1 [Example 82, dicyclopropyl[1-(3-{[4-(trifluoromethyl)-pyrimidin-2-yl]amino}phenyl)-1H-imidazol-4-yl]methanol] |
| ≤ 100 nM | Cc1cc(Nc2nccc(C(F)(F)F)n2)cc(-n2cnc(C3(O)CCN(C(N)=O)CC3)c2)c1 [Example 117, 4-Hydroxy-4-[1-(3-methyl-5-{[4-(trifluoromethyl)pyrimidin-2-yl]amino}phenyl)-1H-imidazol-4-yl]piperidine-1-carboxamide] |
| ≤ 100 nM | Cc1cc(Nc2nccc(C(F)(F)F)n2)cc(-n2cnc([C@]3(O)CC[C@@H](O)CC3)c2)c1 [Example 37, Cis-1-[1-(3-methyl-5-{[4-(trifluoromethyl)pyrimidin-2-yl]amino}phenyl)-1H-imidazol-4-yl]cyclohexane-1,4-diol] |
| ≤ 100 nM | CC(C)(O)c1cn(-c2cc(Nc3nccc(C(F)(F)F)n3)cc(N3CCOCC3)c2)cn1 [Example 107, 2-[1-(3-morpholin-4-yl-5-{[4-(trifluoromethyl)pyrimidin-2-yl]amino}-phenyl)-1H-imidazol-4-yl]propan-2-ol] |
| ≤ 100 nM | CC(C)(O)c1cn(-c2cccc(Nc3cc(Cl)ccn3)n2)cn1 [Example 101, 2-(1-{6-[(4-chloropyridin-2-yl)amino]pyridin-2-yl}-1H-imidazol-4-yl)propan-2-ol] |
| ≤ 100 nM | Cc1cc(Nc2cc(C3CC3)ccn2)nc(-n2cnc([C@]3(O)CC[C@@H](OC(=O)c4ccccc4)CC3)c2)c1 [Example 50, cis-4-(1-{6-[(4-cyclopropylpyridin-2-yl)amino]-4-methylpyridin-2-yl}-1H-imidazol-4-yl)-4-hydroxycyclohexyl benzoate] |
| ≤ 100 nM | Cc1cc(Nc2nccc(C(F)(F)F)n2)cc(-n2cnc(C3=CCC(C)(C(=O)O)CC3)c2)c1 (racemic) [Example 21, 1-methyl-4-[1-(3-methyl-5-{[4-(trifluoromethyl)-pyrimidin-2-yl]amino}-phenyl)-1H-imidazol-4-yl]cyclohex-3-ene-1-carboxylic acid] |
| ≤ 100 nM | Cc1cc(Nc2nccc(C(F)(F)F)n2)cc(-n2cnc([C@]3(O)CC[C@@H](C(=O)N(C)C)CC3)c2)c1 [Example 32, cis-4-hydroxy-N,N-dimethyl-4-[1-(3-methyl-5-{[4-(trifluoromethyl)-pyrimidin-2-yl]amino}-phenyl)-1H-imidazol-4-yl]cyclohexane-carboxamide] |
| 100 to 1000 nM | O=C(c1cn(-c2cccc(Nc3nccc(C(F)(F)F)n3)c2)cn1)N1CCCC1 [Example 70, Pyrrolidin-1-yl[1-(3-{[4-(trifluoromethyl)pyrimidin-2-yl]amino}phenyl)-1H-imidazol-4-yl]methanone] |
| 100 to 1000 nM | CC(C)NC(=O)c1cn(-c2cccc(Nc3nccc(C(F)(F)F)n3)c2)cn1 [Example 103, N-(1-methylethyl)-1-(3-{[4-(trifluoromethyl)pyrimidin-2-yl]amino}phenyl)-1H-imidazole-4-carboxamide] |
| ≤ 100 nM | C=C(C)c1cn(-c2cc(C)cc(Nc3nccc(C(F)(F)F)n3)c2)cn1 [Example 112, N-{3-Methyl-5-[4-(prop-1-en-2-yl)-1H-imidazol-1-yl]phenyl}-4-(trifluoromethyl)pyrimidin-2-amine] |
| ≤ 100 nM | CC(C)(O)c1cn(-c2cccc(Nc3cc(C(F)(F)F)ccn3)n2)cn1 [Example 94, 2-[1-(6-{[4-(trifluoromethyl)-pyridin-2-yl]amino}-pyridin-2-yl)-1H-imidazol-4-yl]propan-2-ol] |
| ≤ 100 nM | Cc1cc(Nc2nccc(C(F)(F)F)n2)cc(-n2cnc(-c3ccc(C(=O)O)cc3)c2)c1 [Example 71, 4-[1-(3-methyl-5-{[4-(trifluoromethyl)pyrimidin-2-yl]amino}-phenyl)-1H-imidazol-4-yl]benzoic acid] |
| ≤ 100 nM | Cc1cc(Nc2cc(C(F)(F)F)ccn2)nc(-n2cnc([C@]3(O)CC[C@@H](CC(=O)O)CC3)c2)c1 [Example 14, {cis-4-hydroxy-4-[1-(4-methyl-6-{[4-(trifluoromethyl)pyridin-2-yl]amino}pyridin-2-yl)-1H-imidazol-4-yl]cyclohexyl}acetic acid] |
| ≤ 100 nM | Cc1cc(Nc2cc(C(F)(F)F)ccn2)nc(-n2cnc(C3(O)CCN(C(N)=O)CC3)c2)c1 [Example 116, 4-Hydroxy-4-[1-(4-methyl-6-{[4-(trifluoromethyl)pyridin-2-yl]amino}pyridin-2-yl)-1H-imidazol-4-yl]piperidine-1-carboxamide] |
| 100 to 1000 nM | Cc1cc(Nc2cc(C(F)(F)F)ccn2)nc(-n2cnc(CCC(=O)O)c2)c1 [Example 74, 3-[1-(4-methyl-6-{[4-(trifluoromethyl)-pyridin-2-yl]amino}-pyridin-2-yl)-1H-imidazol-4-yl]-propanoic acid] |

same assay, conditions: ATP 25 μM, 10-dose titration, read-out: rhSYK IC50

| IC50 | SMILES |
| --- | --- |
| 9 nM | Cc1cc(Nc2nccc(C(F)(F)F)n2)cc(-n2cnc(C3(O)CCN(C(N)=O)CC3)c2)c1 [Example 117, 4-Hydroxy-4-[1-(3-methyl-5-{[4-(trifluoromethyl)pyrimidin-2-yl]amino}phenyl)-1H-imidazol-4-yl]piperidine-1-carboxamide] |
| 3.7 nM | Cc1cc(Nc2nccc(C(F)(F)F)n2)cc(-n2cnc([C@]3(O)CC[C@@H](O)CC3)c2)c1 [Example 37, Cis-1-[1-(3-methyl-5-{[4-(trifluoromethyl)pyrimidin-2-yl]amino}phenyl)-1H-imidazol-4-yl]cyclohexane-1,4-diol] |
| 1.68 nM | Cc1cc(Nc2nccc(C(F)(F)F)n2)cc(-n2cnc(-c3ccc(C(=O)O)cc3)c2)c1 [Example 71, 4-[1-(3-methyl-5-{[4-(trifluoromethyl)pyrimidin-2-yl]amino}-phenyl)-1H-imidazol-4-yl]benzoic acid] |
| 0.861 nM | Cc1cc(Nc2cc(C(F)(F)F)ccn2)nc(-n2cnc([C@]3(O)CC[C@@H](CC(=O)O)CC3)c2)c1 [Example 14, {cis-4-hydroxy-4-[1-(4-methyl-6-{[4-(trifluoromethyl)pyridin-2-yl]amino}pyridin-2-yl)-1H-imidazol-4-yl]cyclohexyl}acetic acid] |
| 3.6 nM | Cc1cc(Nc2cc(C(F)(F)F)ccn2)nc(-n2cnc(C3(O)CCN(C(N)=O)CC3)c2)c1 [Example 116, 4-Hydroxy-4-[1-(4-methyl-6-{[4-(trifluoromethyl)pyridin-2-yl]amino}pyridin-2-yl)-1H-imidazol-4-yl]piperidine-1-carboxamide] |
